In patent US7888329B2, “Substituted aryl piperidinylalkynyladenosines as A2AR agonists” (PGxHealth, LLC, priority 2006, dated 2011):
Where two headings read alike, the source gives them in different places.

How the values were obtained:
[1] = biological target: T1, recombinant human A2A receptors (Homo sapiens, UniProt P29274); assay: Radioligand competition binding with 125I-APE or 125I-ZM241385, Sf9 cell membranes; details: 125I-APE or 125I-ZM241385, Sf9 membranes; class symbols
T1 construct: expressed in transfected cells; host or cells: Sf9 insect cells infected with virus; membranes
In short: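 Membranes (5 μg for A2A; 25 μg for A1) incubated with radioligand at room temperature, 3 h for agonists or 2 h for antagonists, in HE buffer with 1 U/mL adenosine deaminase and 5 mM MgCl2, ± 50 μM GTPγS. Assays ended by filtration; nonspecific binding defined with 50 μM NECA.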

[2] = tested on: Purified human neutrophils; assay: Luminol enhanced chemiluminescence (neutrophil oxidative activity), fMLP stimulated; assay type: cell-based
human A3 AR = biological target: T2, human A3 AR (Homo sapiens, UniProt P0DMS8); assay: Radioligand competition binding with 125I-ABA, membranes of HEK 293 cells stably expressing the receptor; details: Ki derived from IC50, class symbols
T2 construct: expressed in transfected cells; membranes
T2 sequence (P0DMS8 1-318): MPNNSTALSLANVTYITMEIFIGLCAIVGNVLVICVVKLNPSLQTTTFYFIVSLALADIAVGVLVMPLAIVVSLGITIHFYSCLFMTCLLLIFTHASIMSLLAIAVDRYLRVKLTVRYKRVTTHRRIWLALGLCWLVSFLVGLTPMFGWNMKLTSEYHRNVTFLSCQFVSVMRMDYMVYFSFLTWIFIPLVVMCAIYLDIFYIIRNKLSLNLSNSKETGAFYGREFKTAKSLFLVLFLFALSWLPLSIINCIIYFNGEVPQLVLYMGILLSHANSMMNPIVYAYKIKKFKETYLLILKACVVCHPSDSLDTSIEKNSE
In short: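 Triplicate binding with 25 μg membrane protein and 0.5-1 nM agonist radioligand in HE buffer with 1 U/mL adenosine deaminase and 5 mM MgCl2, ±50 μM GTPγS, 3 h at room temperature, then filtration. Nonspecific binding with 50 μM NECA; Ki from IC50 corrected for radioligand and competitor depletion.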

human A1 AR = biological target: T3, human A1 AR (Homo sapiens, UniProt P30542); assay: Radioligand competition binding with 125I-ABA, membranes of CHO K1 cells stably expressing the receptor; details: Ki derived from IC50, class symbols
T3 construct: expressed in transfected cells; membranes
T3 sequence (P30542 1-326): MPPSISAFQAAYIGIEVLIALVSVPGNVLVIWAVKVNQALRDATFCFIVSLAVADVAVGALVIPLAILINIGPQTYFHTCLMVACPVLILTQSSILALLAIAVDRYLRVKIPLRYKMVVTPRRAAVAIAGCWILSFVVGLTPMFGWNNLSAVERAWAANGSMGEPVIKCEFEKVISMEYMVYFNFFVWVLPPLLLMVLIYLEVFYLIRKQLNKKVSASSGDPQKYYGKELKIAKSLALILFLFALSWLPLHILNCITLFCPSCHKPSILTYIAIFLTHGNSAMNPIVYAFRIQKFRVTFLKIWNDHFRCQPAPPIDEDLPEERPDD

[3] = Homo sapiens, Neutrophil, read-out: Functional
[4] = Homo sapiens, Neutrophil, read-out: Functional (nM)
[5] = EC50 of peak chemiluminescence, human PMN, rolipram 100 nM, fMLP, three donors, class symbols, read-out: Functional

T1 sequence (P29274 whole entry): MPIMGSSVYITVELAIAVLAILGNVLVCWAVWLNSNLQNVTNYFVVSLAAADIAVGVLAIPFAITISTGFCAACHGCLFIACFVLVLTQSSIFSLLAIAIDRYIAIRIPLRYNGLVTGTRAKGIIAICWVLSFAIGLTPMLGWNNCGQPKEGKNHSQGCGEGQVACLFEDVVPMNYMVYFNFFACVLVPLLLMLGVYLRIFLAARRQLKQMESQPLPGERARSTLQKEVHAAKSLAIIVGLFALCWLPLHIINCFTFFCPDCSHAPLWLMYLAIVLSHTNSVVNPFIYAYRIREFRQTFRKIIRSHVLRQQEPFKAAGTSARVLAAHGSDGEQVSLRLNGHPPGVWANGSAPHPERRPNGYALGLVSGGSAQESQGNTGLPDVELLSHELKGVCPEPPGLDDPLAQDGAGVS

Compound CCNC(=O)[C@H]1O[C@@H](n2cnc3c(N)nc(C#CCC4CCN(C(=O)OCc5ccccc5)CC4)nc32)[C@@H](O)C1O (some centres unmarked) [Compound 32, N-Ethyl 2-{3-[1-(benzyloxycarbonyl)-4-piperidinyl]-1-propyn-1-yl}adenosine-5′-uronamide, reference compound] has a Ki [1] of under 1 nM, an EC50 [2, 3] of under 10 nM and a Ki (human A3 AR) of under 100 nM. For the same compound, the Ki (human A1 AR) was over 100 nM.

CCNC(=O)[C@H]1O[C@@H](n2cnc3c(N)nc(C#CCC4CCN(C(=O)OCc5ccc([N+](=O)[O-])cc5)CC4)nc32)[C@@H](O)C1O (some centres unmarked) [Compound 33, N-Ethyl 2-{3-[1-(4-nitrobenzyloxycarbonyl)-4-piperidinyl]-1-propyn-1-yl}adenosine-5′-uronamide] showed a Ki [1] of under 1 nM, an EC50 [2, 3] of under 10 nM and a Ki (human A3 AR) of under 10 nM. For the same compound, the Ki (human A1 AR) was under 100 nM.

For CCNC(=O)[C@H]1O[C@@H](n2cnc3c(N)nc(C#CCC4CCN(C(=O)Oc5ccc(N)cc5)CC4)nc32)[C@@H](O)C1O (some centres unmarked) [Compound 34, N-Ethyl 2-{3-[1-(4-aminophenoxycarbonyl)-4-piperidinyl]-1-propyn-1-yl}adenosine-5′-uronamide], the Ki [1] was under 10 nM, the EC50 [2, 3] was under 1 nM and the Ki (human A3 AR) was under 100 nM. The Ki (human A1 AR) was under 100 nM.

Nc1nc(C#CCC2CCN(C(=O)Oc3ccccc3Cl)CC2)nc2c1ncn2[C@@H]1O[C@H](CO)[C@@H](O)[C@H]1O [Compound 35, 2-{3-[1-((2-Chloro)phenoxycarbanoyl)piperidin-4-yl]propyn-1-yl}adenosine] gave a Ki [1] of under 1 nM, an EC50 [2, 3] of under 10 nM and a Ki (human A3 AR) of under 100 nM. It also gave a Ki (human A1 AR) of under 100 nM.

Work on COc1ccccc1OC(=O)N1CCC(CC#Cc2nc(N)c3ncn([C@@H]4O[C@H](CO)[C@@H](O)[C@H]4O)c3n2)CC1 [Compound 36, 2-{3-[1-((2-Methoxy)phenoxycarbanoyl)piperidin-4-yl]propyn-1-yl}adenosine] yielded a Ki [1] of under 1 nM, an EC50 [2, 3] of under 10 nM and a Ki (human A3 AR) of under 100 nM. It also gave a Ki (human A1 AR) of under 100 nM.

CCNC(=O)[C@H]1O[C@@H](n2cnc3c(N)nc(CCCC4CCN(C(=O)Oc5ccc(NO)cc5)CC4)nc32)[C@@H](O)C1O (some centres unmarked) [Compound 37] gave a Ki [1] of under 1 nM, an EC50 [2, 4] of under 10 nM and a Ki (human A3 AR) of under 100 nM. The Ki (human A1 AR) was under 100 nM.

Nc1nc(CCCC2CCN(C(=O)Oc3ccccc3)CC2)nc2c1ncn2[C@@H]1O[C@H](C(=O)NC2CC2)C(O)[C@@H]1O (some centres unmarked) [Compound 38] gave a Ki [1] of under 100 nM, an EC50 [2, 4] of under 100 nM and a Ki (human A3 AR) of over 100 nM. It also gave a Ki (human A1 AR) of over 100 nM.

For Cc1ccc(OC(=O)N2CCC(CCCc3nc(N)c4ncn([C@@H]5O[C@H](C(=O)NC6CC6)C(O)[C@@H]5O)c4n3)CC2)cc1 (some centres unmarked) [Compound 39], the Ki [1] was under 100 nM, the EC50 [2, 4] was under 100 nM and the Ki (human A3 AR) was over 100 nM. It also gave a Ki (human A1 AR) of over 100 nM.

In the case of N=C(Oc1ccc(F)cc1)N1CCC(CC#Cc2nc(N)c3ncn([C@@H]4O[C@H](C(=O)NC5CC5)[C@@H](O)[C@H]4O)c3n2)CC1 [Compound 41, N-Cyclopropyl 2-{3-[1-(4-fluorophenyloxycarboxymidyl)-4-piperidinyl]-1-propyn-1-yl}adenosine-5′-uronamide], the Ki [1] is reported as under 10 nM, the EC50 [2, 5] is reported as under 10 nM and the Ki (human A3 AR) is reported as over 100 nM. It also gave a Ki (human A1 AR) of under 100 nM.

N=C(Oc1ccc(Cl)cc1)N1CCC(CC#Cc2nc(N)c3ncn([C@@H]4O[C@H](C(=O)NC5CC5)[C@@H](O)[C@H]4O)c3n2)CC1 [Compound 42, N-Cyclopropyl 2-{3-[1-(4-chlorophenyloxycarboxymidyl)-4-piperidinyl]-1-propyn-1-yl}adenosine-5′-uronamide] gave a Ki [1] of under 10 nM, an EC50 [2, 5] of over 100 nM and a Ki (human A3 AR) of over 100 nM. The Ki (human A1 AR) was over 100 nM.

Nc1nc(C#CCC2CCN(C(=O)Nc3cccc(Cl)c3)CC2)nc2c1ncn2[C@@H]1O[C@H](C(=O)NC2CC2)C(O)[C@@H]1O (some centres unmarked) [Compound 43, N-Cyclopropyl 2-{3-[1-(3-chlorophenyloxycarboxymidyl)-4-piperidinyl]-1-propyn-1-yl}adenosine-5′-uronamide] showed a Ki [1] of under 10 nM, an EC50 [2, 3] of under 100 nM and a Ki (human A3 AR) of over 100 nM. It also gave a Ki (human A1 AR) of under 100 nM.

Nc1nc(C#CCC2CCN(C(=O)Nc3ccc(F)cc3)CC2)nc2c1ncn2[C@@H]1O[C@H](CO)C(O)[C@@H]1O (some centres unmarked) [Compound 44] showed a Ki [1] of under 10 nM, an EC50 [2, 3] of over 100 nM and a Ki (human A3 AR) of under 100 nM. It also gave a Ki (human A1 AR) of under 100 nM.

Nc1nc(C#CCC2CCN(C(=O)Nc3ccc(Cl)cc3)CC2)nc2c1ncn2[C@@H]1O[C@H](CO)C(O)[C@@H]1O (some centres unmarked) [Compound 45] gave a Ki [1] of under 10 nM, an EC50 [2, 3] of over 100 nM and a Ki (human A3 AR) of under 100 nM. It also gave a Ki (human A1 AR) of under 100 nM.

With Nc1nc(C#CCC2CCN(C(=O)Nc3cccc(Cl)c3)CC2)nc2c1ncn2[C@@H]1O[C@H](CO)C(O)[C@@H]1O (some centres unmarked) [Compound 46] the Ki [1] was under 10 nM, the EC50 [2, 3] was under 100 nM and the Ki (human A3 AR) was under 100 nM. For the same compound, the Ki (human A1 AR) was under 100 nM.

Work on Cc1ccc(OC(=O)N2CCC(CC#Cc3nc(N)c4ncn([C@@H]5O[C@H](C(=O)NC6CC6)[C@@H](O)[C@H]5O)c4n3)CC2)cc1C [Compound 47, N-Cyclopropyl 2-{3-[1-(3,4-dimethylphenoxycarbonyl)-4-piperidinyl]-1-propyn-1-yl}adenosine-5′-uronamide] yielded a Ki [1] of under 1 nM, an EC50 [2, 5] of under 1 nM and a Ki (human A3 AR) of under 100 nM. For the same compound, the Ki (human A1 AR) was under 100 nM.

Compound CCNC(=O)[C@H]1O[C@@H](n2cnc3c(N)nc(C#CCC4CCN(C(=O)Oc5ccc(Cl)c(Cl)c5)CC4)nc32)[C@@H](O)C1O (some centres unmarked) [Compound 49, N-Ethyl 2-{3-[1-(3,4-dichlorophenoxycarbonyl)-4-piperidinyl]-1-propyn-1-yl}adenosine-5′-uronamide] has a Ki [1] of under 1 nM, an EC50 [2, 3] of under 1 nM and a Ki (human A3 AR) of under 10 nM. The Ki (human A1 AR) was under 100 nM.

With CCNC(=O)[C@H]1O[C@@H](n2cnc3c(N)nc(C#CCC4CCN(C(=O)Oc5ccc(F)c(F)c5)CC4)nc32)[C@@H](O)C1O (some centres unmarked) [Compound 50, N-Ethyl 2-{3-[1-(3,4-difluorophenoxycarbonyl)-4-piperidinyl]-1-propyn-1-yl}adenosine-5′-uronamide] the Ki [1] was under 1 nM, the EC50 [2, 3] was under 1 nM and the Ki (human A3 AR) was under 100 nM. The Ki (human A1 AR) was under 100 nM.

Nc1nc(C#CCC2CCN(C(=O)Oc3ccc(Cl)c(Cl)c3)CC2)nc2c1ncn2[C@@H]1O[C@H](C(=O)NC2CC2)C(O)[C@@H]1O (some centres unmarked) [Compound 51, N-Cyclopropyl 2-{3-[1-(3,4-chlorophenoxycarbonyl)-4-piperidinyl]-1-propyn-1-yl}adenosine-5′-uronamide] was tested, and the Ki [1] was under 1 nM, the EC50 [2, 3] was under 1 nM and the Ki (human A3 AR) was under 100 nM. For the same compound, the Ki (human A1 AR) was under 100 nM.

Work on Nc1nc(C#CCC2CCN(C(=O)Oc3ccc(F)c(F)c3)CC2)nc2c1ncn2[C@@H]1O[C@H](C(=O)NC2CC2)C(O)[C@@H]1O (some centres unmarked) [Compound 52, N-Cyclopropyl 2-{3-[1-(3,4-fluorophenoxycarbonyl)-4-piperidinyl]-1-propyn-1-yl}adenosine-5′-uronamide] yielded a Ki [1] of under 1 nM, an EC50 [2, 3] of under 1 nM and a Ki (human A3 AR) of under 100 nM. It also gave a Ki (human A1 AR) of under 100 nM.

With Cc1ccc(OC(=O)N2CCC(CC#Cc3nc(N)c4ncn([C@@H]5O[C@H](CO)[C@@H](O)[C@H]5O)c4n3)CC2)cc1C [Compound 53, 2-{3-[1-((3,4-Dimethyl)phenoxycarbanoyl)piperidin-4-yl]propyn-1-yl}adenosine] the Ki [1] was under 1 nM, the EC50 [2, 3] was under 10 nM and the Ki (human A3 AR) was under 100 nM. The Ki (human A1 AR) was under 100 nM.

Nc1nc(C#CCC2CCN(C(=O)Oc3ccc(F)c(F)c3)CC2)nc2c1ncn2[C@@H]1O[C@H](CO)[C@@H](O)[C@H]1O [Compound 54, 2-{3-[1-((3,4-Difluoro)phenoxycarbanoyl)piperidin-4-yl]propyn-1-yl}adenosine] showed a Ki [1] of under 1 nM, an EC50 [2, 3] of under 10 nM and a Ki (human A3 AR) of under 100 nM. For the same compound, the Ki (human A1 AR) was under 100 nM.

With Nc1nc(C#CCC2CCN(C(=O)Oc3ccc(Cl)c(Cl)c3)CC2)nc2c1ncn2[C@@H]1O[C@H](CO)C(O)[C@@H]1O (some centres unmarked) [Compound 55, 2-{3-[1-((3,4-Chloro)phenoxycarbanoyl)piperidin-4-yl]propyn-1-yl}adenosine] the Ki [1] was under 1 nM, the EC50 [2, 3] was under 10 nM and the Ki (human A3 AR) was under 10 nM. The Ki (human A1 AR) was under 100 nM.

Work on Nc1nc(C#CCC2CCN(C(=O)Oc3cccc([N+](=O)[O-])c3)CC2)nc2c1ncn2[C@@H]1O[C@H](C(=O)NC2CC2)C(O)[C@@H]1O (some centres unmarked) [Compound 56, N-Cyclopropyl 2-{3-[1-(3-nitrophenoxycarbonyl)-4-piperidinyl]-1-propyn-1-yl}adenosine-5′-uronamide] yielded a Ki [1] of under 1 nM, an EC50 [2, 3] of under 1 nM and a Ki (human A3 AR) of over 100 nM. For the same compound, the Ki (human A1 AR) was under 100 nM.
